Biological target: human orexin type 2 receptor (hOX2R) (Homo sapiens (Human), UniProt O43614)
Test: Measurement of orexin type 2 receptor agonist activity (Experimental Example 2-1, FLIPR TETRA, intracellular Ca2+)
Assay type: cell-based
Conditions: CHO dhfr- cells expressing hOX2R; for Emax: read-out: Emax (%); for Emax at 30 µM: value at 30 uM concentration, orexin B as full agonist = 100%
Text: To obtain a cell clone stably expressing human orexin type 2 receptor, human orexin type 2 receptor cDNA was inserted into pcDNA3.1(+) plasmid vector (Invitrogen), and a plasmid DNA for expression of human orexin type 2 receptor (pcDNA3.1(+)/hOX2R) was cloned. The plasmid DNA was introduced into CHO-dhfr cell by an electroporation method, and human orexin type 2 receptor expressing clone cells were obtained by limiting dilution method by using G418 drug resistance as a selection marker.
Chinese hamster ovary (CHO) dhfr-cells forcibly expressing human orexin type 2 receptor (hOX2R) were seeded in each well of Black clear bottom plate (384 wells) (Becton, Dickinson and Company) by 10,000 cells, and cultured for 16 hr in an MEM-alpha (Nikken-Bio Co., Ltd.) medium containing 100 U/ml penicillin, 100 μg/ml streptomycin, […] G418 (all above Invitrogen), and 10% fetal calf serum (Thermo), under the conditions of 37° C., 5% CO2. […] A test compound was dissolved in dimethyl sulfoxide to 10 mM, and then diluted with assay buffer 2 (20 mM HEPES, Hanks' balanced salt solution (Invitrogen), 0.1% bovine serum albumin). For the reaction, a test compound solution (10 μL) was added using Fluorescent Imaging Plate Reader TETRA (FLIPR TETRA; manufactured by Molecular Devices), a fluorescence value (excitation wavelength 488 nm, measurement wavelength 570 nm) of each well was measured every one second for 1 min, and the agonist activity was determined using the area of the fluorescence value as an indicator of intracellular Ca^2+ concentration.

[1] = agonist activity, 10 nM human orexin B = 100%

Chain of human orexin type 2 receptor (hOX2R) (O43614 whole entry): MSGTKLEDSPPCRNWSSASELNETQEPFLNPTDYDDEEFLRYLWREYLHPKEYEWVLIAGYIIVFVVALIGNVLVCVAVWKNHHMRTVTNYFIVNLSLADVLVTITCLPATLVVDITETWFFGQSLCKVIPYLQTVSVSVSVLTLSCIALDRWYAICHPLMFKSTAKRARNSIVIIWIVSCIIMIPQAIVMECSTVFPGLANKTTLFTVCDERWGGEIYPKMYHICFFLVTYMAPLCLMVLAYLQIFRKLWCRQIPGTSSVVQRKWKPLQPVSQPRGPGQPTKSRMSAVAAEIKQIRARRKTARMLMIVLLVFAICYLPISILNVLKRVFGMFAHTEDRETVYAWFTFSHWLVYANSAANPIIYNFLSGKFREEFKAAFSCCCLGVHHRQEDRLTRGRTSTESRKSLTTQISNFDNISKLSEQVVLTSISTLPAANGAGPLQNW

Compound	EC50 (FLIPR TETRA, Fluo-4AM) [nM]	Emax (FLIPR TETRA, Fluo-4AM) [%]	EC50 [1] [nM]	Emax at 30 µM [%]
CC(C)[C@H]1CC[C@@H](OC[C@H]2[C@@H](NS(C)(=O)=O)CCCN2C(=O)C2CN(S(C)(=O)=O)C2)CC1 (relative stereo) [Example 90, N-(cis-2-(((cis-4-isopropylcyclohexyl)oxy)methyl)-1-((1-(methylsulfonyl)azetidin-3-yl)carbonyl)piperidin-3-yl)methanesulfonamide]			2800	74
CC1(C)CCC(C(=O)N2CCC[C@H](NS(C)(=O)=O)[C@@H]2COC2CCN(c3ncccn3)CC2)CC1 (relative stereo) [Example 210, N-(cis-1-((4,4-dimethylcyclohexyl)carbonyl)-2-(((1-(pyrimidin-2-yl)piperidin-4-yl)oxy)methyl)piperidin-3-yl)methanesulfonamide]	3600	86		
CC(=O)N1CCC[C@H](NS(C)(=O)=O)[C@@H]1CO[C@H]1CC[C@@H](C(F)(F)F)CC1 (relative stereo) [Example 106, N-(cis-1-acetyl-2-(((cis-4-(trifluoromethyl)cyclohexyl)oxy)methyl)piperidin-3-yl)methanesulfonamide]			4800	89
CC(C)OC(=O)N1CCC[C@H](NS(C)(=O)=O)[C@@H]1COC1CCN(c2ccccc2F)CC1 (relative stereo) [Example 237, isopropyl cis-2-(((1-(2-fluorophenyl)piperidin-4-yl)oxy)methyl)-3-((methylsulfonyl)amino)piperidine-1-carboxylate]	490	90		
CCNC(=O)N1CCC[C@H](NS(C)(=O)=O)[C@@H]1CO[C@H]1CC[C@@H](C)CC1 (relative stereo) [Example 129, cis-N-ethyl-2-(((cis-4-methylcyclohexyl)oxy)methyl)-3-((methylsulfonyl)amino)piperidine-1-carboxamide]	39	96		
COCCNC(=O)N1CCC[C@H](NS(C)(=O)=O)[C@@H]1CO[C@H]1CC[C@@H](C(C)C)CC1 (relative stereo) [Example 96, cis-2-(((cis-4-isopropylcyclohexyl)oxy)methyl)-N-(2-methoxyethyl)-3-((methylsulfonyl)amino)piperidine-1-carboxamide]			26	95
CS(=O)(=O)N[C@H]1CCCN(C(=O)OC2CC2)[C@H]1COC1CCN(c2ccccc2F)CC1 (relative stereo) [Example 290, cyclopropyl cis-2-(((1-(2-fluorophenyl)piperidin-4-yl)oxy)methyl)-3-((methylsulfonyl)amino)piperidine-1-carboxylate]	3300	79		
CS(=O)(=O)N[C@H]1CCCN(C(=O)C2CC2)[C@H]1CO[C@H]1CC[C@@H](c2cc(F)cc(F)c2)CC1 [Example 242, N-((2R,3S)-1-(cyclopropylcarbonyl)-2-(((cis-4-(3,5-difluorophenyl)cyclohexyl)oxy)methyl)piperidin-3-yl)methanesulfonamide]	0.88	99		
CC(C)[C@H]1CC[C@@H](OC[C@H]2[C@@H](NS(C)(=O)=O)CCCN2C(=O)Cn2cnccc2=O)CC1 (relative stereo) [Example 93, N-(cis-2-(((cis-4-isopropylcyclohexyl)oxy)methyl)-1-((6-oxopyrimidin-1(6H)-yl)acetyl)piperidin-3-yl)methanesulfonamide]			2300	84
CS(=O)(=O)N[C@H]1CCCN(C(=O)C2CC2)[C@H]1COC1CCN(c2cccc(F)c2Cl)CC1 (relative stereo) [Example 209, N-(cis-2-(((1-(2-chloro-3-fluorophenyl)piperidin-4-yl)oxy)methyl)-1-(cyclopropylcarbonyl)piperidin-3-yl)methanesulfonamide]	1900	89		

Results, then the molecule that gave them:

EC50 (FLIPR TETRA, Fluo-4AM) [nM]	Emax (FLIPR TETRA, Fluo-4AM) [%]	EC50 [1] [nM]	Emax at 30 µM [%]	Compound
370	93			CS(=O)(=O)N[C@H]1CCCN(C(=O)C2(C#N)CC2)[C@H]1CO[C@H]1CC[C@@H](c2ccccc2)CC1 [Example 187, N-((2R,3S)-1-((1-cyanocyclopropyl)carbonyl)-2-(((cis-4-phenylcyclohexyl)oxy)methyl)piperidin-3-yl)methanesulfonamide]
140	96			CCNC(=O)N1CCC[C@H](NS(C)(=O)=O)[C@@H]1CO[C@H]1CC[C@@H](c2ccn(C)n2)CC1 (relative stereo) [Example 159, cis-N-ethyl-2-(((cis-4-(1-methyl-1H-pyrazol-3-yl)cyclohexyl)oxy)methyl)-3-((methylsulfonyl)amino)piperidine-1-carboxamide]
22	94			CS(=O)(=O)N[C@H]1CCCN(C(=O)Cn2cccn2)[C@H]1CO[C@H]1CC[C@@H](c2ccccc2)CC1 (relative stereo) [Example 138, N-(cis-2-(((cis-4-phenylcyclohexyl)oxy)methyl)-1-(1H-pyrazol-1-ylacetyl)piperidin-3-yl)methanesulfonamide]
0.31	100			CS(=O)(=O)N[C@H]1CCCN(C(=O)NCC#N)[C@H]1CO[C@H]1CC[C@@H](c2ccccc2)CC1 (relative stereo) [Example 179, cis-N-(cyanomethyl)-3-((methylsulfonyl)amino)-2-(((cis-4-phenylcyclohexyl)oxy)methyl)piperidine-1-carboxamide]
710	102			CC(=O)N1CCC[C@H](NS(C)(=O)=O)[C@@H]1CO[C@H]1CC[C@@H](c2cccc(C(F)(F)F)c2)CC1 (relative stereo) [Example 204, N-(cis-1-acetyl-2-(((cis-4-(3-(trifluoromethyl)phenyl)cyclohexyl)oxy)methyl)piperidin-3-yl)methanesulfonamide]
9.3	93			CS(=O)(=O)N[C@H]1CCCN(C(=O)[C@@H]2CCC(=O)O2)[C@H]1CO[C@H]1CC[C@@H](c2ccccc2)CC1 [Example 184, N-((2R,3S)-1-(((2S)-5-oxotetrahydrofuran-2-yl)carbonyl)-2-(((cis-4-phenylcyclohexyl)oxy)methyl)piperidin-3-yl)methanesulfonamide]
		480	102	CN(C)S(=O)(=O)N[C@H]1CCCN[C@H]1CO[C@H]1CC[C@@H](c2ccccc2)CC1 (relative stereo) [Example 109, N,N-dimethyl-N′-(cis-2-(((cis-4-phenylcyclohexyl)oxy)methyl)piperidin-3-yl)sulfuric diamide]
960	102			CS(=O)(=O)N[C@H]1CCCN(C(=O)C2CC2)[C@H]1COC1CCN(c2ccccc2)CC1 (relative stereo) [Example 247, N-(cis-1-(cyclopropylcarbonyl)-2-(((1-phenylpiperidin-4-yl)oxy)methyl)piperidin-3-yl)methanesulfonamide]
	95			CC(C)(C)OC(=O)N1CCC[C@H](NS(C)(=O)=O)[C@@H]1CO[C@H]1CC[C@@H](c2ccccc2)CC1 (relative stereo) [Example 155, tert-butyl cis-3-((methylsulfonyl)amino)-2-(((cis-4-phenylcyclohexyl)oxy)methyl)piperidine-1-carboxylate]
		420	94	CC(=O)N1CCC[C@H](NS(C)(=O)=O)[C@@H]1CO[C@H]1CC[C@@H](c2ccc(F)cc2)CC1 (relative stereo) [Example 112, N-(cis-1-acetyl-2-(((cis-4-(4-fluorophenyl)cyclohexyl)oxy)methyl)piperidin-3-yl)methanesulfonamide]
		15	102	COC(=O)N1CCC[C@H](NS(C)(=O)=O)[C@@H]1CO[C@H]1CC[C@@H](c2ccccc2C(F)(F)F)CC1 [Example 32, methyl (2R,3S)-3-((methylsulfonyl)amino)-2-(((cis-4-(2-(trifluoromethyl)phenyl)cyclohexyl)oxy)methyl)piperidine-1-carboxylate]
2.3	92			CCC(=O)N1CCC[C@H](NS(C)(=O)=O)[C@@H]1CO[C@H]1CC[C@@H](c2ccccc2)CC1 [Example 182, N-((2R,3S)-2-(((cis-4-phenylcyclohexyl)oxy)methyl)-1-propionylpiperidin-3-yl)methanesulfonamide]
6.1	101			COC(=O)N1CCC[C@H](NS(C)(=O)=O)[C@@H]1CO[C@H]1CC[C@@H](c2ccccc2Cl)CC1 (relative stereo) [Example 335, methyl cis-2-(((cis-4-(2-chlorophenyl)cyclohexyl)oxy)-methyl)-3-((methylsulfonyl)amino)piperidine-1-carboxylate]
590	109			CS(=O)(=O)N[C@H]1CCCN(C(=O)CC2CC2)[C@H]1CO[C@H]1C[C@@H](c2ccccc2)C1 (relative stereo) [Example 308, N-(cis-1-(cyclopropylacetyl)-2-(((cis-3-phenylcyclobutyl)oxy)methyl)-piperidin-3-yl)methanesulfonamide]

From patent US10287305B2, “Substituted piperidine compound and use thereof” (Takeda Pharmaceutical Company Limited, priority 2016, dated 2019)
